The source of these data is patent US11952364B2, “TRK inhibitors useful as anticancer drugs” (TYLIGAND BIOSCIENCE (SHANGHAI) LIMITED, priority 2018, dated 2024).

This test concerns Ba/F3 ETV6-NTRK3-G696C cells. The test can be described thus: Proliferation of Ba/F3 ETV6-NTRK3-G696C cells (CellTiter-Glo). Type of test: cell-based, mouse. The source says: Ba/F3 ETV6-NTRK3-G696C is a stable transgenic cell line constructed by KYinno Biotechnology Co., Ltd. on mouse primary B cell Ba/F3 wherein NTRK3 is highly expressed with a mutation of G at position […] to C and fused with ETV6 to form ETV6-NTRK3. • [Test method]: Promega's CellTiter-Glo® Luminescent Cell Viability Assay kit was used to evaluate the inhibitory activity of the compounds on the proliferation of Ba/F3 ETV6-NTRK3-G696C cells. • [Instrument]: Spectramax M3 multifunctional microplate reader from Molecular Devices. • [Test materials]: Ba/F3 ETV6-NTRK3-G696C cell line (constructed by KYinno Biotechnology Co., Ltd. (Beijing)), 96-well transparent flat-bottomed black-walled cell culture plate (Corning, cat #3603), RPMI-1640 media (GE, product number #SH30027.01), fetal bovine serum FBS (Thermo Fisher, cat #10099-141), CellTiter-Glo® Luminescent Cell Viability Assay kit (Promega, cat #G7572), PBS (Solarbio, cat #P1020), DMSO (Sigma, cat #D2650). • [Experimental procedure]: When resuscitating Ba/F3 ETV6-NTRK3-G696C cells, • the freezing tube was quickly shaken in a 37° C. water bath to melt within 1 minute. The thawed cell suspension was mixed uniformly with RPMI1640 medium containing 10% FBS, centrifuged at 1000 rpm for 5 minutes, and the supernatant discarded. 5 mL of complete medium (RPMI1640 medium with 10% FBS) was taken to resuspend the cell pellets, charged into a cell culture flask with a bottom area of 25 cm^2, and incubated in a cell incubator at 37° C., 95% humidity and 5% CO2. Cells were allowed to passage when the number of cells reached about 10^6 cells/mL. For cell passage, the old cell suspension was directly pipetted evenly, 1/5 of the cell suspension was kept, 4 mL of new complete medium was added, after pipetting evenly, the cell flask was placed in the cell incubator for further culturing. Cell plating was performed when the number of cells reached about 10^6 cells/mL again. For cell plating, 1/5 of the cell suspension was kept for further culturing as in the cell passage method, and the remaining 4/5 of the cell suspension was placed in a 15 mL centrifuge tube, detected for cell viability by Trypan blue exclusion method to ensure that cell viability was above 90%. A cell suspension with a density of 5.56×10^4 viable cells/mL was prepared with complete medium, and 90 μL of such cell suspension was added to a 96-well cell culture plate to obtain the cell density of 5000 viable cells/mL in the cell culture plate. A control group containing no cells, no compound and only complete medium (i.e. culture medium control) and a control group containing no compound but containing cells (i.e. cell control) were set. The cell plate was placed in a cell incubator overnight. The 10 mM compound stock solution in DMSO was first serially diluted with DMSO at a dilution factor of 3.16 times, to obtain 9 concentrations, and the 10th concentration was set as DMSO control without compound. Then, PBS was used to dilute the DMSO solutions of compounds of different concentrations, at a dilution factor of 100 times, so that the DMSO concentration in the compound solution of each concentration was 1%. Finally, 10 μL of each of the above solutions was added to the corresponding cell culture plate, so that the initial compound concentration was 10 μM, with the remaining concentrations being successively diluted at a dilution factor of 3.16 times, and the DMSO content in the cell culture plate was 0.1%. The cell plate was placed in a cell incubator and cultured for 72 hours. For endpoint detection, the CellTiter-Glo reagent was melted, and the cell plate was moved to room temperature to equilibrate for 30 minutes, added with 100 μL of CellTiter-Glo for each well, and shaken on an orbital shaker for 5 minutes to fully lyse the cells. […]
In general terms: Cellular ATP, detected with luciferase, serves as a proxy for viable cell number.

Setting [1] is: Mus musculus, BaF3, 72 h, Table 7, 72 hours, read-out: Ba/F3 ETV6-NTRK3-G696C, IC50.
Where [2] appears, read: Mus musculus, BaF3, Table 7-2, separate test, read-out: Ba/F3 ETV6-NTRK3-G696C, IC50.
Setting [3] is: Mus musculus, BaF3, Table 7-1, separate test, read-out: Ba/F3 ETV6-NTRK3-G696C, IC50.
Where [4] appears, read: Mus musculus, BaF3, Table 9, read-out: Ba/F3 ETV6-NTRK3-G696C cell proliferation inhibitory activity (IC50).

Where two headings read alike, the source gives them in different places.

For `Cn1ncc2cc(Oc3ccc(NC(=O)c4ccc(C(F)(F)F)n(-c5ccc(F)cc5)c4=O)cc3F)c(-c3cn[nH]c3)cc21` [Example 1, N-(3-fluoro-4-(1-methyl-6-(1H-pyrazol-4-yl)-1H-indazol-5-yloxy)phenyl)-1-(4-fluorophenyl)-6-trifluoromethyl-2-oxo-1,2-dihydmpyridine-3-carboxamide monomethanesulfonate], the IC50 under setting [1] is 33 nM.

Regarding `Cn1ncc2cc(Oc3ccc(NC(=O)c4ccc(C5CC5)n(-c5ccc(F)cc5)c4=O)cc3F)c(-c3cn[nH]c3)cc21` [Example 2, N-(3-fluoro-4-(1-methyl-6-(1H-pyrazol-4-yl)-1H-indazol-5-yloxy)phenyl)-1-(4-fluorophenyl)-6-cyclopropyl-2-oxo-1,2-dihydmpyridine-3-carboxamide], under setting [1], the IC50 amounted to 20 nM.

As to `CCn1ncc2cc(Oc3ccc(NC(=O)c4ccc(C)n(-c5ccc(F)cc5)c4=O)cc3F)c(-c3cn[nH]c3)cc21` [Example 3, N-(3-fluoro-4-(1-ethyl-6-(1H-pyrazol-4-yl)-1H-indazol-5-yloxy)phenyl)-1-(4-fluorophenyl)-6-methyl-2-oxo-1,2-dihydmpyridine-3-carboxamide], the IC50 under setting [1] worked out at 18 nM.

As to `Cc1ccc(C(=O)Nc2ccc(Oc3cc4cnn(C(C)C)c4cc3-c3cn[nH]c3)c(F)c2)c(=O)n1-c1ccc(F)cc1` [Example 4, N-(3-fluoro-4-(1-isopropyl-6-(1H-pyrazol-4-yl)-1H-indazol-5-yloxy)phenyl)-1-(4-fluorophenyl)-6-methyl-2-oxo-1,2-dihydmpyridine-3-carboxamide], under setting [1], the IC50 was 34 nM.

As for `CCc1ccc(C(=O)Nc2ccc(Oc3cc4cnn(C)c4cc3-c3cn[nH]c3)c(F)c2)c(=O)n1-c1ccc(F)cc1` [Example 5, N-(3-fluoro-4-(1-methyl-6-(1H-pyrazol-4-yl)-1H-indazol-5-yloxy)phenyl)-1-(4-fluorophenyl)-6-ethyl-2-oxo-1,2-dihydropyridine-3-carboxamide], the IC50 under setting [1] turned out to be 6.8 nM.

In the case of `CC(C)c1ccc(C(=O)Nc2ccc(Oc3cc4cnn(C)c4cc3-c3cn[nH]c3)c(F)c2)c(=O)n1-c1ccc(F)cc1` [Example 6, N-(3-fluoro-4-(1-methyl-6-(1H-pyrazol-4-yl)-1H-indazol-5-yloxy)phenyl)-1-(4-fluorophenyl)-6-isopropyl-2-oxo-1,2-dihydropyridine-3-carboxamide], under setting [1], the IC50 was determined as 16 nM.

With `CSc1ccc(C(=O)Nc2ccc(Oc3cc4cnn(C)c4cc3-c3cn[nH]c3)c(F)c2)c(=O)n1-c1ccc(F)cc1` [Example 11, N-(3-fluoro-4-(1-methyl-6-(1H-pyrazol-4-yl)-1H-indazol-5-yloxy)phenyl)-1-(4-fluorophenyl)-6-methylthio-2-oxo-1,2-dihydropyidine-3-carboxamide], the IC50 under setting [2] was 1.8 nM.

In the case of `COc1ccc(C(=O)Nc2ccc(Oc3cc4cnn(C)c4cc3-c3cn[nH]c3)c(F)c2)c(=O)n1-c1ccc(F)cc1` [Example 12, N-(3-fluoro-4-(1-methyl-6-(1H-pyrazol-4-yl)-1H-indazol-5-yloxy)phenyl)-1-(4-fluorophenyl)-6-methoxy-2-oxo-1,2-dihydropyridine-3-carboxamide], the IC50 under setting [3] came out at 3 nM.

In the case of `CCOc1ccc(C(=O)Nc2ccc(Oc3cc4cnn(C)c4cc3-c3cn[nH]c3)c(F)c2)c(=O)n1-c1ccc(F)cc1` [Example 14, N-(3-fluoro-4-(1-methyl-6-(1H-pyrazol-4-yl)-1H-indazol-5-yloxy)phenyl)-1-(4-fluorophenyl)-6-ethoxy-2-oxo-12-dihydropyridine-3-carboxamide], the IC50 under setting [2] is 1.6 nM.

`Cn1ncc2cc(Oc3ccc(NC(=O)c4ccc(OC5CC5)n(-c5ccc(F)cc5)c4=O)cc3F)c(-c3cn[nH]c3)cc21` [Example 15, N-(3-fluoro-4-(1-methyl-6-(1H-pyrazol-4-yl)-1H-indazol-5-yloxy)phenyl)-1-(4-fluorophenyl)-6-cyclopropoxy-2-oxo-1,2-dihydropyridine-3-carboxamide]: the IC50 under setting [2] is 1.9 nM.

For the molecule `CC(C)Oc1ccc(C(=O)Nc2ccc(Oc3cc4cnn(C)c4cc3-c3cn[nH]c3)c(F)c2)c(=O)n1-c1ccc(F)cc1` [Example 16, N-(3-fluoro-4-(1-methyl-6-(1H-pyrazol-4-yl)-1H-indazol-5-yloxy)phenyl)-1-(4-fluorophenyl)-6-isopropoxy-2-oxo-1,2-dihydropyridine-3-carboxamide], the IC50 under setting [2] was found to be 1.2 nM.

Consider `CCc1ccc(C(=O)Nc2ccc(Oc3cc4cnn(CC)c4cc3-c3cn[nH]c3)c(F)c2)c(=O)n1-c1ccc(F)cc1` [Example 18, N-(3-fluoro-4-(1-ethyl-6-(1H-pyrazol-4-yl)-1H-indazol-5-yloxy)phenyl)-1-(4-fluorophenyl)-6-ethyl-2-oxo-1,2-dihydropyridine-3-carboxamide], for which the IC50 under setting [3] came to 12 nM.

In the case of `CCn1ncc2cc(Oc3ccc(NC(=O)c4ccc(C5CC5)n(-c5ccc(F)cc5)c4=O)cc3F)c(-c3cn[nH]c3)cc21` [Example 19, N-(3-fluoro-4-(1-ethyl-6-(1H-pyrazol-4-yl)-1H-indazol-5-yloxy)phenyl)-1-(4-fluorophenyl)-6-cyclopropyl-2-oxo-1,2-dihydropyridine-3-carboxamide], the IC50 under setting [3] came out at 14 nM.

Regarding `CCn1ncc2cc(Oc3ccc(NC(=O)c4ccc(OC)n(-c5ccc(F)cc5)c4=O)cc3F)c(-c3cn[nH]c3)cc21` [Example 23, N-(3-fluoro-4-(1-ethyl-6-(1H-pyrazol-4-yl)-1H-indazol-5-yloxy)phenyl)-1-(4-fluorophenyl)-6-methoxy-2-oxo-1,2-dihydropyridine-3-carboxamide], the IC50 under setting [3] came out at 11 nM.

For `CCOc1ccc(C(=O)Nc2ccc(Oc3cc4cnn(CC)c4cc3-c3cn[nH]c3)c(F)c2)c(=O)n1-c1ccc(F)cc1` [Example 24, N-(3-fluoro-4-(1-ethyl-6-(1H-pyrazol-4-yl)-1H-indazol-5-yloxy)phenyl)-1-(4-fluorophenyl)-6-ethoxy-2-oxo-12-dihydropyridine-3-carboxamide], for the setting “Table 7-2, separate test, read-out: Ba/F3 ETV6-NTRK3-G696C, IC50”, the IC50 came to 3.5 nM.

In the case of `CCn1ncc2cc(Oc3ccc(NC(=O)c4ccc(OC(C)C)n(-c5ccc(F)cc5)c4=O)cc3F)c(-c3cn[nH]c3)cc21` [Example 26, N-(3-fluoro-4-(1-ethyl-6-(1H-pyrazol-4-yl)-1H-indazol-5-yloxy)phenyl)-1-(4-fluorophenyl)-6-isopropoxy-2-oxo-1,2-dihydropyridine-3-carboxamide], under setting [2], the IC50 was 3.1 nM.

For `COc1ccc(C(=O)Nc2ccc(Oc3cc4cnn5c4c(c3-c3cn[nH]c3)CC5)c(F)c2)c(=O)n1-c1ccc(F)cc1` [Example 28, N-(4-((5-(1H-pyrazol-4-yl)-6,7-dihydropyrrolo[3,2,1-hi]-indazol-4-yl)oxy)-3-fluorophenyl)-1-(4-fluorophenyl)-6-methoxy-2-oxo-1,2-dihydropyidine-3-carboxamide], the IC50 under setting [4] came out at 3.6 nM.

In the case of `Cc1ccc(C(=O)Nc2ccc(Oc3cc4cnn5c4c(c3-c3cn[nH]c3)CC5)c(F)c2)c(=O)n1-c1ccc(F)cc1` [Example 31, N-(4-((5-(1H-pyrazol-4-yl)-6,7-dihydropyrrolo[3,2,1-hi]-indazol-4-yl)oxy)-3-fluorophenyl)-1-(4-fluorophenyl)-6-methyl-2-oxo-1,2-dihydropyridine-3-carboxamide], under setting [4], the IC50 was 5.3 nM.
